This experiment deals with T1, hLIFR (Homo sapiens, UniProt P42702).
T1 sequence (P42702 45-1097): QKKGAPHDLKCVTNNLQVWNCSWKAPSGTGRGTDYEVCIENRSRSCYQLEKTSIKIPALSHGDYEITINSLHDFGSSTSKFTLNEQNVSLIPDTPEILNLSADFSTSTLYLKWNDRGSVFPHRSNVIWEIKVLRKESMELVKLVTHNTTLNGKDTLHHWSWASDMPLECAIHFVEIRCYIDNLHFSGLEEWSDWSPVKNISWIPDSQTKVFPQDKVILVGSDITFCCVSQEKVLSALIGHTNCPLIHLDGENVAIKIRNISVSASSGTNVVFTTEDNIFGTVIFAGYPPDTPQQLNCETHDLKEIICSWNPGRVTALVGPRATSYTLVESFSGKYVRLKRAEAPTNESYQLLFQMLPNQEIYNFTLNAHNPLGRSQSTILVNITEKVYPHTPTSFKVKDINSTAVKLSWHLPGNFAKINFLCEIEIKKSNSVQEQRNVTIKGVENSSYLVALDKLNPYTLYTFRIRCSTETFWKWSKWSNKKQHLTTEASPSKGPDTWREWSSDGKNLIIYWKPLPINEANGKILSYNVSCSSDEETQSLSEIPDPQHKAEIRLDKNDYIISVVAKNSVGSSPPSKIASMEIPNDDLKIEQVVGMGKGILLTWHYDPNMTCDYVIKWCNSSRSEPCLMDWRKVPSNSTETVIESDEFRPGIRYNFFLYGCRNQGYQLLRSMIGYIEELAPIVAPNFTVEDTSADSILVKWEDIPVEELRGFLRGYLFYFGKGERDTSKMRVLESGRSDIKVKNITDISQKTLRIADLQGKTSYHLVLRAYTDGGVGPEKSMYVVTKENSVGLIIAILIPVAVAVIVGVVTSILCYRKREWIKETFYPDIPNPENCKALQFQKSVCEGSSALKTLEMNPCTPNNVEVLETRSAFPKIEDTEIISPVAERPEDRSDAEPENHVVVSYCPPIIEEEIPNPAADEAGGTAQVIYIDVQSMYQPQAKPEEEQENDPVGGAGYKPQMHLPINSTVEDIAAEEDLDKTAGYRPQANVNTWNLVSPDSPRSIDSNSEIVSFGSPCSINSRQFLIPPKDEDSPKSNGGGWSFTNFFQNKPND
Nature of the experiment: STAT3 transactivation in HepG2 cells transfected with hLIFR and CD130, stimulated with LIF. Type of experiment: cell-based. Particulars: LIF 10 ng/mL, read-out: HepG2 LIFR Antagonism IC50 (STAT3 transactivation). The procedure:
On day 0, HepG2 were seeded at 7.5 × 10^4 cells/well in a 24-well plate and maintained at 37°C and 5% CO2 in E-MEM supplemented with 10% FBS, 1% glutamine, and 1% penicillin/streptomycin. On day 1, cells were transiently transfected with the reporter plasmid pGL4.47[luc2P/SIE/Hygro] (200 ng) (CAT#: E4041 Promega, Madison, WI, USA), a vector encoding the hLIFR (CAT# RC226327) (100 ng) and CD130 (IL6ST) (100 ng) (CAT#: RC215123, OriGene Technologies, Inc. Rockville, MD, USA), and finally a vector encoding the human RENILLA luciferase gene (pGL4.70) (100 ng) (Promega, Madison, WI, USA). On day 2, cells were exposed to the cytokine LIF (10 ng/mL) alone or in combination with BAR502 (from 0.1 to 20 μM). […] For FXR mediated transactivation, HepG2 cells were plated at 7.5 × 10^4 cells/well in a 24 well plate. Cells were transfected with 200 ng of the reporter vector p(hsp27)-TK-LUC containing a FXR response element (IR1) cloned from the promoter of heat shock protein 27 (hsp27), 100 ng of pSG5-FXR, 100 ng of pSG5-RXR, and 100 ng of pGL4.70 (Promega), a vector encoding the human Renilla gene. To perform STAT3 transactivation, HepG2 were seeded at 7.5× 10^4 cells/well in a 24-well plate. On the day-1, cells were transiently transfected with 200 ng of the reporter plasmid pGL4.47[luc2P/SIE/Hygro] […] Luminescence was measured using a Glomax 20/20 luminometer (Promega, Madison, WI, USA). […]

pIC50: −log10 of the molar value.

One molecule from article PMC10043345, “Discovery of BAR502, as potent steroidal antagonist of leukemia inhibitory factor receptor for the treatment of pancreatic adenocarcinoma” (Frontiers in Oncology, 2023) can be followed below.

For the molecule `CC[C@H]1[C@@H](O)C2C3CC[C@H]([C@H](C)CCO)[C@@]3(C)CCC2[C@@]2(C)CC[C@@H](O)C[C@@H]12` (stereo partly shown) [BAR502], the pIC50 is 5.56.
